Legend:
Test in all cases: Competitive isoTOP-ABPP, cell lysates
Type in all cases: binding
CYR61 C134 (O00622) = biological target: T1, CYR61 C134 (O00622) (Homo sapiens, UniProt O00622); conditions: for isoTOP-ABPP ratio (reactivity profile), O00622_C134: 500 μm in-vitro ramos_231
T1 sequence (O00622 25-381): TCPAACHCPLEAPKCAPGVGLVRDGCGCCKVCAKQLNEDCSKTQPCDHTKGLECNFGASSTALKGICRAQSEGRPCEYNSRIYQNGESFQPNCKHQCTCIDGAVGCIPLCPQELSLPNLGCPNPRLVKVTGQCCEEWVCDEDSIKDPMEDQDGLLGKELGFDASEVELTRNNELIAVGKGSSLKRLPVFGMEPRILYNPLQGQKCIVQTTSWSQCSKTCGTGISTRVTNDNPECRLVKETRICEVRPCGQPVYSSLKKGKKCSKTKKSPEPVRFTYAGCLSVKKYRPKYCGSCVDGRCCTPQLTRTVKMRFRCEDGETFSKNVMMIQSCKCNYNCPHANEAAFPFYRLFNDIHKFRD

USP22 C44 (Q9UPT9) = biological target: T2, USP22 C44 (Q9UPT9) (Homo sapiens, UniProt Q9UPT9)
T2 sequence (Q9UPT9 1-525): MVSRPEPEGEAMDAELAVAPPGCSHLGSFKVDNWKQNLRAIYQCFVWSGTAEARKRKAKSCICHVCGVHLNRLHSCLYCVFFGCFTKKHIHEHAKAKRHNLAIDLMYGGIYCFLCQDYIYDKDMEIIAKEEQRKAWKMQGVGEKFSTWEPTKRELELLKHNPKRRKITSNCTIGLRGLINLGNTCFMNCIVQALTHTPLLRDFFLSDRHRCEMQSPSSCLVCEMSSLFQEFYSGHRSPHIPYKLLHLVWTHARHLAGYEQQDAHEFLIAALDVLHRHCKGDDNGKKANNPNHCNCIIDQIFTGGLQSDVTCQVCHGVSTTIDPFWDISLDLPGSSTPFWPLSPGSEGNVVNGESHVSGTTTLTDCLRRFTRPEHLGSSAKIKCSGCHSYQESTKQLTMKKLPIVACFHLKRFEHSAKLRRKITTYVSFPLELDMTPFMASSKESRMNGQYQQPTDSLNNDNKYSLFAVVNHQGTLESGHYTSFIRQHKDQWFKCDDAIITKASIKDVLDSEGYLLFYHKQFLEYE

PES1 C361 (O00541) = PES1 C361 (O00541) (Homo sapiens, UniProt O00541)
PES1 C361 (O00541), sequence (O00541 whole entry, looked up): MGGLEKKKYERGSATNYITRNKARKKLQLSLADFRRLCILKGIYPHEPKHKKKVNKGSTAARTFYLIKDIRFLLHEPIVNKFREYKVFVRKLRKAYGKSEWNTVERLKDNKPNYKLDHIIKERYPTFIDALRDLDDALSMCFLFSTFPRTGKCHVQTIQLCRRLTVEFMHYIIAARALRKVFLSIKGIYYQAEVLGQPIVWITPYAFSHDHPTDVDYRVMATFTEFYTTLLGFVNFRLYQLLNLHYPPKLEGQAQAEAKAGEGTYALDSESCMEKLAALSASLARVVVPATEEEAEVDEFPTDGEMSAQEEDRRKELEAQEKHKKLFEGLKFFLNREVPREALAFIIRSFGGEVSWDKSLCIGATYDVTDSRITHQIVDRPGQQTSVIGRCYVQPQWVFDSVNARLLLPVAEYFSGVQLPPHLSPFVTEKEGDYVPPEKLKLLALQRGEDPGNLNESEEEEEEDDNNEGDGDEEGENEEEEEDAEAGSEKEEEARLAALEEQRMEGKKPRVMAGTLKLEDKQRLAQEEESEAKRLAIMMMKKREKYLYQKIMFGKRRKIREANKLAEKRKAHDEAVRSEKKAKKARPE

USP34 C1090 (Q70CQ2) = USP34 C1090 (Q70CQ2) (Homo sapiens, UniProt Q70CQ2); conditions: for isoTOP-ABPP ratio (reactivity profile), Q70CQ2_C1090: 500 μm in-vitro ramos
USP34 C1090 (Q70CQ2), sequence (Q70CQ2 whole entry): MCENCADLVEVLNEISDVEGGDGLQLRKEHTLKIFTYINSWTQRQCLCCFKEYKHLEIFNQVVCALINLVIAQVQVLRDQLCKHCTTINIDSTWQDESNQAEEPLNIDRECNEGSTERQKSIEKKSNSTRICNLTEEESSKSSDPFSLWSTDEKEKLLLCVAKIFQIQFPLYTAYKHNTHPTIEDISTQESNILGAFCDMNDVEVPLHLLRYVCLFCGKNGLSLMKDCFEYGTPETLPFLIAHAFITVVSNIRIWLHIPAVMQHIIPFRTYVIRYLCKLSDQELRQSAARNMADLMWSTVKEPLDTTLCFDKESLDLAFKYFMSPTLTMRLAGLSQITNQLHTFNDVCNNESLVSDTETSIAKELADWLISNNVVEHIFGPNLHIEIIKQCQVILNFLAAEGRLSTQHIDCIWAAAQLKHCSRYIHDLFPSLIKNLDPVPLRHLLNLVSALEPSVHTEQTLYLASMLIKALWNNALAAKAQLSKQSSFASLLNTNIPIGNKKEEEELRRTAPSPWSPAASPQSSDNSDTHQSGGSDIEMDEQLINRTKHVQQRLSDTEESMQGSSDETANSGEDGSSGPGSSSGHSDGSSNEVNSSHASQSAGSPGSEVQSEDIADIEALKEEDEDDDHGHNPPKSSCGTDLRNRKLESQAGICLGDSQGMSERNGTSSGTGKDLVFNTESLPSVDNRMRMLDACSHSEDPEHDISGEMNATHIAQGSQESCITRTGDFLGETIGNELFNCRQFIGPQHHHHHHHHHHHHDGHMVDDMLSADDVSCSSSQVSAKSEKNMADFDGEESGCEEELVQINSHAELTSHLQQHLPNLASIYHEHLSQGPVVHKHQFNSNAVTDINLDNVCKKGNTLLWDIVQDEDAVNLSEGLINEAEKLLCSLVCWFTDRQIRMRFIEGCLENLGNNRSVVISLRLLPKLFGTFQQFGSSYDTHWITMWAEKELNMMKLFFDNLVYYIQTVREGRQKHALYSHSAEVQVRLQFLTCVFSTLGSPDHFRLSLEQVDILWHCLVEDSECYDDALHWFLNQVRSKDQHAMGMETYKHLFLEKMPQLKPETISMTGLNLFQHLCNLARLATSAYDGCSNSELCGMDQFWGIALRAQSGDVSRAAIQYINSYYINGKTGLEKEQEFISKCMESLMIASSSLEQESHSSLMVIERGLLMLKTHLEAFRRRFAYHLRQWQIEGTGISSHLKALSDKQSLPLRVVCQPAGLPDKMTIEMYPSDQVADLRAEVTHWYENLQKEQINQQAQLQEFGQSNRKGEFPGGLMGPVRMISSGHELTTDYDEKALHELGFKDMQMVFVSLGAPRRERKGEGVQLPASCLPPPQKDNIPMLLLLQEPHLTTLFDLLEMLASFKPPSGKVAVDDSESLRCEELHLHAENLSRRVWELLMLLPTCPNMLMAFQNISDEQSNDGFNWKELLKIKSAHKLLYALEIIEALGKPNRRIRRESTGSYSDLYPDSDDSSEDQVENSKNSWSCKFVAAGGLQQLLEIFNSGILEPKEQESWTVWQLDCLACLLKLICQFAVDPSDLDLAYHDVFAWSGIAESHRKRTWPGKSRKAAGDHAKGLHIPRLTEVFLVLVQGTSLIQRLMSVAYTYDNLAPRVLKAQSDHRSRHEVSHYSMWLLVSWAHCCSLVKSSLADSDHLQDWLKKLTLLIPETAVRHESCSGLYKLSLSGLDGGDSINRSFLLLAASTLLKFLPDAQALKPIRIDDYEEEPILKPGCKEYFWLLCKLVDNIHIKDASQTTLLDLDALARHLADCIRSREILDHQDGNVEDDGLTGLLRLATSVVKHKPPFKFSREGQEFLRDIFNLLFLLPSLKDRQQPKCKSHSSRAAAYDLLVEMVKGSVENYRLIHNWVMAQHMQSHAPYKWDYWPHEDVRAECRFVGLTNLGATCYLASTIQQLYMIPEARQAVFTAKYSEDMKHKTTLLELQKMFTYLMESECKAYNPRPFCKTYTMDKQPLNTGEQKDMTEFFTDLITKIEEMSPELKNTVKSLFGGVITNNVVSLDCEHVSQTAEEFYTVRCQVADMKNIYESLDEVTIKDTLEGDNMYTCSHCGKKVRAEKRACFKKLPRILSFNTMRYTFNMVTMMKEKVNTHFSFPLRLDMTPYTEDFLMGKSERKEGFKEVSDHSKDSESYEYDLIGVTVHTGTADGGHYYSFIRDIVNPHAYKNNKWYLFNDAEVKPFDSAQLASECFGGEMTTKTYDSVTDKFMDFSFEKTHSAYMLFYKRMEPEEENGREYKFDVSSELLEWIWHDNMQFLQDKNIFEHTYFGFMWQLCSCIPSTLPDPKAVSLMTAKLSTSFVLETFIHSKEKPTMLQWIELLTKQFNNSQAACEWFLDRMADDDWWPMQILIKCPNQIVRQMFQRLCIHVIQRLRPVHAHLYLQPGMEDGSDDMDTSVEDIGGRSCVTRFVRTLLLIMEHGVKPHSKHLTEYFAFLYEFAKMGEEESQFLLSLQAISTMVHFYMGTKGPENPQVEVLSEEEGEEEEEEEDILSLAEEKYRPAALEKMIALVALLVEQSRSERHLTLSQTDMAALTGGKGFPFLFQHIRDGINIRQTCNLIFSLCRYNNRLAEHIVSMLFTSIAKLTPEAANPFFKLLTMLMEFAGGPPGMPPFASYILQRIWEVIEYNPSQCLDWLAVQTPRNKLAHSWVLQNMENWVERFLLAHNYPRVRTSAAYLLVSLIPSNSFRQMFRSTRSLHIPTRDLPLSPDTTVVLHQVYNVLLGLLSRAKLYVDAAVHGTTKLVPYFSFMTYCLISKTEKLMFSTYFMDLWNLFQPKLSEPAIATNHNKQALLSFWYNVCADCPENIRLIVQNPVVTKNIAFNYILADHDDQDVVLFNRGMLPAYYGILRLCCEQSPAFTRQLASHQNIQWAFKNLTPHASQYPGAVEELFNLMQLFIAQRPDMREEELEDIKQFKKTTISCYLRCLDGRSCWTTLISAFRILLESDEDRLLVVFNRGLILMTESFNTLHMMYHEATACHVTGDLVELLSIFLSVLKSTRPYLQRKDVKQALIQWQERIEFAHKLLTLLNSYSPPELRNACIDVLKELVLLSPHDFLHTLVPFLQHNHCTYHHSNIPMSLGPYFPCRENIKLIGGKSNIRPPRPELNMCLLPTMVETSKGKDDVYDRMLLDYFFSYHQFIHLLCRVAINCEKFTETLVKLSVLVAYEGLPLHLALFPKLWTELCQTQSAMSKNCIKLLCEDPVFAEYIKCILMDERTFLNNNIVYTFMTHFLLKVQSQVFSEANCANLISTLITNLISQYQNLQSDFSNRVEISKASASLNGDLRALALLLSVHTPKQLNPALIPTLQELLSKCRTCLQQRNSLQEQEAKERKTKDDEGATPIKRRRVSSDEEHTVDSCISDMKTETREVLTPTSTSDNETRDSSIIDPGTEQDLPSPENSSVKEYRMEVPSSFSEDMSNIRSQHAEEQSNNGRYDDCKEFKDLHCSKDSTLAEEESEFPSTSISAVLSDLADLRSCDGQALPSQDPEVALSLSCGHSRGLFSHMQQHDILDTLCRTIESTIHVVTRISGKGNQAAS

NR3C1 C622 (P04150) = biological target: T3, NR3C1 C622 (P04150) (Homo sapiens, UniProt P04150)
T3 sequence (P04150 1-777): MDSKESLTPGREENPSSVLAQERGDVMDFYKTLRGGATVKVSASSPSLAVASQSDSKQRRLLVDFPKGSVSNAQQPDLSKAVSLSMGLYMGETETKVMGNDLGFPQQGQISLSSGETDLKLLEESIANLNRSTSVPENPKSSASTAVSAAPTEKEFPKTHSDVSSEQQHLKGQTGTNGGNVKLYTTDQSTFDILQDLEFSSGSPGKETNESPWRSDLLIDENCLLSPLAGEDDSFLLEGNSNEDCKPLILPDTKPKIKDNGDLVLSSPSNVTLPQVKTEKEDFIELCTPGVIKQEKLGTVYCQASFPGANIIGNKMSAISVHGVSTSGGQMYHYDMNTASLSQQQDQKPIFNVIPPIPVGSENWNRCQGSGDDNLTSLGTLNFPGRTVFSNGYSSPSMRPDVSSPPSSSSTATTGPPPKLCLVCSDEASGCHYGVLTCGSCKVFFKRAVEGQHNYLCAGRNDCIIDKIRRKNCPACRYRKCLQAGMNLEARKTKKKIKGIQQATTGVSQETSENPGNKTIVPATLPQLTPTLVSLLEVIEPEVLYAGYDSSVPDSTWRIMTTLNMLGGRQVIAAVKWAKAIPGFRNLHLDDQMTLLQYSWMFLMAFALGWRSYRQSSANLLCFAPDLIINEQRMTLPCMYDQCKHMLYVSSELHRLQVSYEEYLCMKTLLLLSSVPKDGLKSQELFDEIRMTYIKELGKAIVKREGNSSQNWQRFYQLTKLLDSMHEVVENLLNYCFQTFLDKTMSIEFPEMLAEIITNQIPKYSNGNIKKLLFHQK

With `O=C(CCl)N1CCN(S(=O)(=O)c2ccccc2F)CC1` [compound 10] the “isoTOP-ABPP ratio, O00622_C134” value (CYR61 C134 (O00622); 500 μM, invitro, 231) was 20.0.
In the case of `CC(C)CCOCCNC(=O)CCl` [compound 27], the “isoTOP-ABPP ratio (reactivity profile), Q9UPT9_C44” value (USP22 C44 (Q9UPT9); 500 μm in-vitro ramos) is reported as 1.2, the “isoTOP-ABPP ratio (reactivity profile), Q9UPT9_C44” value (USP22 C44 (Q9UPT9); 500 μm in-vitro ramos_231) is reported as 20.0 and the “isoTOP-ABPP ratio (reactivity profile), O00622_C134” value (CYR61 C134 (O00622)) is reported as 1.5.
With `O=C(CCl)N1CCC(C(O)(c2ccccc2)c2ccccc2)CC1` [compound 20] the “isoTOP-ABPP ratio (reactivity profile), O00541_C361” value (from here on “isoTOP-ABPP ratio … O00541_C361”) (PES1 C361 (O00541); 500 μm in-vitro ramos) was 20.0, the “isoTOP-ABPP ratio … O00541_C361” value (PES1 C361 (O00541); 500 μm in-vitro ramos_231) was 20.0 and the “isoTOP-ABPP ratio (reactivity profile), Q70CQ2_C1090” value (USP34 C1090 (Q70CQ2)) was 2.7. For the same compound, the “isoTOP-ABPP ratio (reactivity profile), O00622_C134” value (CYR61 C134 (O00622)) was 20.0.
`CCN(CC)c1ccc(S(N)(=O)=O)cc1NC(=O)CCl` [compound 30] was tested, and the “isoTOP-ABPP reactivity ratio, Q9UPT9_C44” value (USP22 C44 (Q9UPT9); 500 μm, in-vitro_ramos) was 1.7.
In the case of `N#C/C(=C\c1cc(C(F)(F)F)cc(C(F)(F)F)c1)C(N)=O` [compound 23], the “isoTOP-ABPP ratio … O00541_C361” value (PES1 C361 (O00541); 500 μm in-vitro ramos) is reported as 1.1.
With `O=C(CCl)NC12CC3CC(CC(C3)C1)C2` [compound 21] the “isoTOP-ABPP ratio (reactivity profile), Q70CQ2_C1090” value (USP34 C1090 (Q70CQ2)) was 0.9.
`Cn1cc(S(=O)(=O)N2CCOCC2)cc1C(=O)NC(=O)CCl` [compound 11] was tested, and the “isoTOP-ABPP ratio, P04150_C622” value (NR3C1 C622 (P04150); 500 μM, invitro, 231) was 1.7.
In the case of `O=C(CCl)Nc1cc(C(F)(F)F)cc(C(F)(F)F)c1` [compound 3], the “R value (DMSO/fragment)” value (PES1 C361 (O00541); 500 μM, in vitro, MDA-MB-231) is reported as 1.5, the “R value (DMSO/fragment)” value (USP34 C1090 (Q70CQ2); 500 μM, invitro, ramos) is reported as 19.7 and the “R value (DMSO/fragment)” value (CYR61 C134 (O00622); 500 μM, in vitro, MDA-MB-231) is reported as 20.0. For the same compound, the “R value (DMSO/fragment)” value (NR3C1 C622 (P04150); 500 μM, in vitro, MDA-MB-231) was 20.0.
With `COc1cc(NC(=O)CCl)cc(OC)c1` [compound 43] the “isoTOP-ABPP reactivity profile ratio, Q9UPT9_C44” value (USP22 C44 (Q9UPT9); 500 μm, in-vitro_ramos) was 2.1.
With `C=CC(=O)N(c1ccccc1)c1ccc(Br)cc1` [compound 5] the “isoTOP-ABPP ratio, Q9UPT9_C44” value (USP22 C44 (Q9UPT9); 500 μM, invitro, ramos) was 20.0 and the “isoTOP-ABPP ratio, Q70CQ2_C1090” value (USP34 C1090 (Q70CQ2); 500 μM, invitro, ramos) was 20.0.
`C=CC(=O)N(Cc1cccnc1)c1cc(C(F)(F)F)cc(C(F)(F)F)c1` [compound 31] was tested, and the “isoTOP-ABPP reactivity ratio, P04150_C622” value (NR3C1 C622 (P04150); 500 μm, in-vitro_ramos_231) was 4.8.
In the case of `CC(Cl)C(=O)Nc1cc(C(F)(F)F)cc(C(F)(F)F)c1` (stereo not drawn) [compound 25], the “isoTOP-ABPP ratio (reactivity profile), O00622_C134” value (CYR61 C134 (O00622)) is reported as 1.0.
